Assay results as given in ChEMBL document CHEMBL3132769, “Fragment growing to retain or alter the selectivity of anchored kinase hinge-binding fragments” (Medchemcomm, 2014).

Assays:
[1] = biological target: MAP kinase p38 (Homo sapiens) (UniProt O15264+Q15759+Q16539+P53778); test: Inhibition of human full length p38 beta2 expressed in Escherichia coli cell assessed as substrate phosphorylation using fluorescence-labelled peptides as substrate at 9 uM after 90 mins by microfluidic peptide phosphorylation assay
[2] = biological target: Tyrosine-protein kinase Lyn (Homo sapiens) (UniProt P07948); test: Inhibition of human full length LYN expressed in baculovirus assessed as substrate phosphorylation using fluorescence-labelled peptides as substrate at 9 uM after 90 mins by microfluidic peptide phosphorylation assay
[3] = biological target: Tyrosine-protein kinase Lck (Homo sapiens) (UniProt P06239); test: Inhibition of human full length LCK expressed in baculovirus assessed as substrate phosphorylation using fluorescence-labelled peptides as substrate at 9 uM after 90 mins by microfluidic peptide phosphorylation assay
[4] = biological target: T1, Serine/threonine-protein kinase Chk1 (Homo sapiens) (UniProt O14757); conditions: 9 uM
T1 sequence (whole entry): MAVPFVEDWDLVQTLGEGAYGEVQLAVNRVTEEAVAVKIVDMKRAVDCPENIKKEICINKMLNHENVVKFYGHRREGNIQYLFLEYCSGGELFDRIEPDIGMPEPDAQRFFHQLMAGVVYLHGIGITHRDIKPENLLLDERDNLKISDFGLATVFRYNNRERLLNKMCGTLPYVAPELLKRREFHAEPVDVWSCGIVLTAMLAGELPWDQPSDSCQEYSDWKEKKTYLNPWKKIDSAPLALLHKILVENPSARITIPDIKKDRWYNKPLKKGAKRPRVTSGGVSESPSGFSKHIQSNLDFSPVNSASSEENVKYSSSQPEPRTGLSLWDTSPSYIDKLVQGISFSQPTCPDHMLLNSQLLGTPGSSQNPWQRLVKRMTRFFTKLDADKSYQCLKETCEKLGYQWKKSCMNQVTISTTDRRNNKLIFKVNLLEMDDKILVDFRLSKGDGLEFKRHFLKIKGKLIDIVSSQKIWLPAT
Description: Inhibition of human full length CHK1 expressed in baculovirus assessed as substrate phosphorylation using fluorescence-labelled peptides as substrate at 9 uM after 90 mins by microfluidic peptide phosphorylation assay

[5] = biological target: Calcium/calmodulin-dependent protein kinase type II subunit beta (Homo sapiens) (UniProt Q13554); test: Inhibition of human CAMK2 beta catalytic domain expressed in baculovirus assessed as substrate phosphorylation using fluorescence-labelled peptides as substrate at 95 uM after 90 mins by microfluidic peptide phosphorylation assay
[6] = biological target: Ribosomal protein S6 kinase alpha-4 (Homo sapiens) (UniProt O75676); test: Inhibition of human full length MSK2 expressed in baculovirus assessed as substrate phosphorylation using fluorescence-labelled peptides as substrate at 0.06 uM after 90 mins by microfluidic peptide phosphorylation assay
[7] = biological target: Fibroblast growth factor receptor 3 (Homo sapiens) (UniProt P22607); test: Inhibition of human FGFR3 catalytic domain expressed in baculovirus assessed as substrate phosphorylation using fluorescence-labelled peptides as substrate at 0.06 uM after 90 mins by microfluidic peptide phosphorylation assay
[8] = biological target: Ribosomal protein S6 kinase alpha-5 (Homo sapiens) (UniProt O75582); test: Inhibition of human full length MSK1 expressed in baculovirus assessed as substrate phosphorylation using fluorescence-labelled peptides as substrate at […] after 90 mins by microfluidic peptide phosphorylation assay
[9] = biological target: Protein kinase C alpha type (Homo sapiens) (UniProt P17252); test: Inhibition of human truncated PKC alpha expressed in baculovirus assessed as substrate phosphorylation using fluorescence-labelled peptides as substrate at 420 uM after 90 mins by microfluidic peptide phosphorylation assay
[10] = biological target: Insulin-like growth factor 1 receptor (Homo sapiens) (UniProt P08069); test: Inhibition of human IGF1R catalytic domain expressed in baculovirus assessed as substrate phosphorylation using fluorescence-labelled peptides as substrate at 420 uM after 90 mins by microfluidic peptide phosphorylation assay
[11] = biological target: Serine/threonine-protein kinase Chk2 (Homo sapiens) (UniProt O96017); test: Inhibition of human full length CHK2 expressed in baculovirus assessed as substrate phosphorylation using fluorescence-labelled peptides as substrate at 420 uM after 90 mins by microfluidic peptide phosphorylation assay
[12] = biological target: T2, MAP kinase-activated protein kinase 5 (Homo sapiens) (UniProt Q8IW41); test: Inhibition of human full length PRAK expressed in baculovirus assessed as substrate phosphorylation using fluorescence-labelled peptides as substrate at 70 uM after 90 mins by microfluidic peptide phosphorylation assay
T2 sequence (whole entry): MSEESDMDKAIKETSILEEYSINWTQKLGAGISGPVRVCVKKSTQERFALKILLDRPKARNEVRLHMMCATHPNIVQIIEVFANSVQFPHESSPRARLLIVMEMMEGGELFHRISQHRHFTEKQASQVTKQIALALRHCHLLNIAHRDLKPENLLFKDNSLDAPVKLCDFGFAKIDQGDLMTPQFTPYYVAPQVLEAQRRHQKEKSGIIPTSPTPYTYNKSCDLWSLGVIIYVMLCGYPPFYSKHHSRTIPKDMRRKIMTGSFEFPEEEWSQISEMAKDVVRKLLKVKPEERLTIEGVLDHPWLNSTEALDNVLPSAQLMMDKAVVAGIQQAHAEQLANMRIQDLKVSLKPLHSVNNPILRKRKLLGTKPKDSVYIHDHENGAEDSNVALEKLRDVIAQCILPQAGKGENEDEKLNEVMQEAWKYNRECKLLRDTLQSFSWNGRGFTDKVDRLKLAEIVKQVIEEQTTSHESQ

[13] = biological target: T3, Serine/threonine-protein kinase Sgk2 (Homo sapiens) (UniProt Q9HBY8); test: Inhibition of human full length SGK2 expressed in baculovirus assessed as substrate phosphorylation using fluorescence-labelled peptides as substrate at 70 uM after 90 mins by microfluidic peptide phosphorylation assay
T3 sequence (whole entry): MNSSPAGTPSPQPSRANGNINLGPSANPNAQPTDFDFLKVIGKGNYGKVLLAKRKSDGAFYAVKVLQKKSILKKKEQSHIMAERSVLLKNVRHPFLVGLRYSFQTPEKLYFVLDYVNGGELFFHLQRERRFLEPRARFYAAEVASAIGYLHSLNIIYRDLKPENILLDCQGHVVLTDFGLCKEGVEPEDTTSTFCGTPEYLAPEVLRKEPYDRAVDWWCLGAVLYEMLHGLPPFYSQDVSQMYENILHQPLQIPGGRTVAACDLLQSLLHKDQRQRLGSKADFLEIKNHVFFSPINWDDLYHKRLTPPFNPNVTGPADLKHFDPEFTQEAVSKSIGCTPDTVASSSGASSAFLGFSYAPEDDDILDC

[14] = biological target: Tyrosine-protein kinase ABL1 (Homo sapiens) (UniProt P00519); test: Inhibition of human full-length ABL expressed in baculovirus assessed as substrate phosphorylation using fluorescence-labelled peptides as substrate at 8 uM after 90 mins by microfluidic peptide phosphorylation assay
Tyrosine-protein kinase ABL1 (Homo sapiens), sequence (P00519 whole entry): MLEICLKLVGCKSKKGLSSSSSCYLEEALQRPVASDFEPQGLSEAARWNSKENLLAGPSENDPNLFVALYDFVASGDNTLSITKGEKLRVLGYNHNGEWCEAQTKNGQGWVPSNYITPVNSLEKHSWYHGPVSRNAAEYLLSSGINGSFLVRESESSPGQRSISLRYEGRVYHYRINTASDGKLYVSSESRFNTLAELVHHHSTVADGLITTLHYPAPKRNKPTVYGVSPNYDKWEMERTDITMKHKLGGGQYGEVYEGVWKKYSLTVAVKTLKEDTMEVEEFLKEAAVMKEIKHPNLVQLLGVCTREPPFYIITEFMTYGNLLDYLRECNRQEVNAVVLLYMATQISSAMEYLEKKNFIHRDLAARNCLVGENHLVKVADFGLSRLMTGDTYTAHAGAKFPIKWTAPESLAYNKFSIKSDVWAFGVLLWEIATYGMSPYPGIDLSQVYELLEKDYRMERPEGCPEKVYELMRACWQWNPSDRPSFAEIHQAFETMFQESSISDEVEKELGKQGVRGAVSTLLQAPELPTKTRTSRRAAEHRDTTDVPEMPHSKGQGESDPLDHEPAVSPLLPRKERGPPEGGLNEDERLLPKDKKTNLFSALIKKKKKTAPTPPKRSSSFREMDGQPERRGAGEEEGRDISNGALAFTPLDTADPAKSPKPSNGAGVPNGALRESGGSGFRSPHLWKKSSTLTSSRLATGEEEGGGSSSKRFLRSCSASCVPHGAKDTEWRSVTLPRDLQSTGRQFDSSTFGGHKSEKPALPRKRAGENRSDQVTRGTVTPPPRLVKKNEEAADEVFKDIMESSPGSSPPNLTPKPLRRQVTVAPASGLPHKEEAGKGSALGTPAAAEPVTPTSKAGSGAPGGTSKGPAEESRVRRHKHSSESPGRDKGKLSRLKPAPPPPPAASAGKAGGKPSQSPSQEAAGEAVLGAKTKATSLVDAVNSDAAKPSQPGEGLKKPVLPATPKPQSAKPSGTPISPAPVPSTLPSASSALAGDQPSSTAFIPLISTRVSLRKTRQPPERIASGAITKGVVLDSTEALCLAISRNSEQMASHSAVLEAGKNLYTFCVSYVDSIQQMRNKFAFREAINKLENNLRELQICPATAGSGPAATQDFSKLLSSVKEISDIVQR

Fibroblast growth factor receptor 3 (Homo sapiens), sequence (P22607 23-806 limits assumed): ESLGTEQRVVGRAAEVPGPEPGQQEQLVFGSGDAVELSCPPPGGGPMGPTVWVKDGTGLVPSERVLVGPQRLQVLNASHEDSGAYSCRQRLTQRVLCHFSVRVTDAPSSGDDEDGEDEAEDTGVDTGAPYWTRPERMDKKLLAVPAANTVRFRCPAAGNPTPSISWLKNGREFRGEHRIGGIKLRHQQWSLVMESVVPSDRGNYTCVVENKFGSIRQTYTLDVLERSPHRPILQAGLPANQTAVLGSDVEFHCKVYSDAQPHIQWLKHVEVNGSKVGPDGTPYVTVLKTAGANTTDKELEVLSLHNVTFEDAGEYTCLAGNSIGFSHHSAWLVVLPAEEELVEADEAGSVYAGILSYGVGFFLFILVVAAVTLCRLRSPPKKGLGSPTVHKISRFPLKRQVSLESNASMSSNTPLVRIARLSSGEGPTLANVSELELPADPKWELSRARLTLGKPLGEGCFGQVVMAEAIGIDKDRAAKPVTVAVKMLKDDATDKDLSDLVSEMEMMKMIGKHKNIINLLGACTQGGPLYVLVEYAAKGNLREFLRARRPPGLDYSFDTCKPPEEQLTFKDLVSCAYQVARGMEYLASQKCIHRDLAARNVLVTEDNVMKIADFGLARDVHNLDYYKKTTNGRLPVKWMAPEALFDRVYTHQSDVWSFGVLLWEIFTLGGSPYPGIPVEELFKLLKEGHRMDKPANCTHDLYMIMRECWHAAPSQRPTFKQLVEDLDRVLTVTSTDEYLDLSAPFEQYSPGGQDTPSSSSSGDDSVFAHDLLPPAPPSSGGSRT
Tyrosine-protein kinase Lck (Homo sapiens), sequence (P06239 2-509 limits assumed): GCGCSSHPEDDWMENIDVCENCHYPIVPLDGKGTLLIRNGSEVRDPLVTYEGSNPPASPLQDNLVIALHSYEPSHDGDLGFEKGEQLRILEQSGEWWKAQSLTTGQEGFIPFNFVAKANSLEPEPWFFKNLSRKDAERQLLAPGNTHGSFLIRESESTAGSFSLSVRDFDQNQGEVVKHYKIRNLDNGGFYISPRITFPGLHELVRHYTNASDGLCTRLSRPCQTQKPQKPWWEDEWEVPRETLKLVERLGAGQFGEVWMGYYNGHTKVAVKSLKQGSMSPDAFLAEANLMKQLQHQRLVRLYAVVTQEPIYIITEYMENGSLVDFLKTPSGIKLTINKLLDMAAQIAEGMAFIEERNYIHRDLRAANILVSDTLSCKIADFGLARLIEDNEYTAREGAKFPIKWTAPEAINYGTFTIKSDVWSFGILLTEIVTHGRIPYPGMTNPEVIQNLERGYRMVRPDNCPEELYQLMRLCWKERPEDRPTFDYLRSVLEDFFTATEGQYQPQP
Ribosomal protein S6 kinase alpha-5 (Homo sapiens), sequence (O75582 whole entry, looked up, the tested form may be a part): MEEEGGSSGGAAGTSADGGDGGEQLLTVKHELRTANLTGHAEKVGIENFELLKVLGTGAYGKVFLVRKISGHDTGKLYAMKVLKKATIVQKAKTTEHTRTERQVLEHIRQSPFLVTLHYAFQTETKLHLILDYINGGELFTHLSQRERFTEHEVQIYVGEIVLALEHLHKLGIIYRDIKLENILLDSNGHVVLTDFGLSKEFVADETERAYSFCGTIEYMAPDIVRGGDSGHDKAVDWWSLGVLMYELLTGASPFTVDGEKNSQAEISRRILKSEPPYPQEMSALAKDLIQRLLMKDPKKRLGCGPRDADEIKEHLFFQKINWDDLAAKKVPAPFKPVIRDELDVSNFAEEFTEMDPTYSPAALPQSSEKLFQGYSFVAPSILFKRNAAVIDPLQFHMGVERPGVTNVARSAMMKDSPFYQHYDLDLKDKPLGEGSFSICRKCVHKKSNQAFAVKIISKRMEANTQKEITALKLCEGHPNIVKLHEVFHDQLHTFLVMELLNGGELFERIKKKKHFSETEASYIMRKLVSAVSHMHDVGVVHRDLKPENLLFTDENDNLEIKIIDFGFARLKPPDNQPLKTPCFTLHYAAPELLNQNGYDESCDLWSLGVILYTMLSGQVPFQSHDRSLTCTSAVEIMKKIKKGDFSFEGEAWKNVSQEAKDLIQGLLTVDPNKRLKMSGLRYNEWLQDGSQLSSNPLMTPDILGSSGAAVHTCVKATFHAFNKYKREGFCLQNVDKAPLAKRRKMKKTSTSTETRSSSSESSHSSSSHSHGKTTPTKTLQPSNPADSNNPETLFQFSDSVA
Serine/threonine-protein kinase Chk2 (Homo sapiens), sequence (O96017 whole entry): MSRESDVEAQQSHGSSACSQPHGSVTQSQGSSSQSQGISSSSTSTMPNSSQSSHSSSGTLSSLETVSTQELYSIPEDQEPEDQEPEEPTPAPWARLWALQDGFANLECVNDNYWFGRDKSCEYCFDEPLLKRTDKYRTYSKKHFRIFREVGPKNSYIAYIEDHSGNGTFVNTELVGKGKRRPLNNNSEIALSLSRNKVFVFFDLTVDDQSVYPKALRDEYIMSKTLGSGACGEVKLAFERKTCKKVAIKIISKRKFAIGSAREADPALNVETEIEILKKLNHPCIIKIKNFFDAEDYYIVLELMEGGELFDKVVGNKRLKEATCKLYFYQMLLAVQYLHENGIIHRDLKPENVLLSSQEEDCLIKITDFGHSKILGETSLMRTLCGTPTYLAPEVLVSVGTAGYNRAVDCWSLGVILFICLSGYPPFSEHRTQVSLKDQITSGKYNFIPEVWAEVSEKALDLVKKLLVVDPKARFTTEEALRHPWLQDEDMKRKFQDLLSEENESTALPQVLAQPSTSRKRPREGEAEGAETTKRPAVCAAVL
Tyrosine-protein kinase Lyn (Homo sapiens), sequence (P07948 2-512 limits assumed): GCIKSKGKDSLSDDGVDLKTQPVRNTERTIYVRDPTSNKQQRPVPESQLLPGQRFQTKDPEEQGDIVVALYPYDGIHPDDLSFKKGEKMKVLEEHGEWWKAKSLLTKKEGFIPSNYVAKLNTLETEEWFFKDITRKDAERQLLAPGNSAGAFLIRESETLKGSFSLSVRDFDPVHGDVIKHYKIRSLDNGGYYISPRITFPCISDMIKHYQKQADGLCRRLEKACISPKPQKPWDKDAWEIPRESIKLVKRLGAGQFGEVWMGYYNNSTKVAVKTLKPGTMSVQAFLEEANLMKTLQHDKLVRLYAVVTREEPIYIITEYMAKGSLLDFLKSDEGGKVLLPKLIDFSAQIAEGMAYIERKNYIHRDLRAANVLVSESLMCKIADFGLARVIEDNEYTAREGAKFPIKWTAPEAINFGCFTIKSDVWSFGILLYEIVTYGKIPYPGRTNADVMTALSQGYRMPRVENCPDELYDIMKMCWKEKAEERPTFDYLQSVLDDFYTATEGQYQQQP

NCC1CN(c2ncnc3[nH]c4cnccc4c23)CCO1 (centres undefined)
inhibition [1]: 0%
inhibition [2]: 42%
inhibition [3]: 39%
inhibition [4]: 91%

NCCc1ccc(-c2ncnc3[nH]cnc23)cc1
inhibition [5]: 2%

NC1(Cc2ccc(Cl)cc2)CCN(c2ncnc3[nH]ccc23)CC1
inhibition [6]: 0%
inhibition [7]: 0%

COC(=O)c1cnc(Nc2cnc(C#N)cn2)cc1NCC1CCNCC1
inhibition [8]: 8%

c1nc(N2CCOCC2)c2nc[nH]c2n1
inhibition [9]: 64.5%
inhibition [10]: 15%
inhibition [11]: 85%

CNCc1ccc(-c2ncnc3[nH]cnc23)cc1
inhibition [12]: 20.5%
inhibition [13]: 74%

NCC1CCN(c2ncnc3[nH]ccc23)CC1
inhibition [14]: 57.5%
